Source: patent US7795261B2, “Substituted 1-piperidin-4-yl-4-pyrrolidin-3-yl-piperazine derivatives and their use as neurokinin antagonists” (Janssen Pharmaceutica NV, priority 2002, dated 2010)

Columns and labels:
Type in all cases: cell-based
[1] = target: T1, NK2 (Homo sapiens, UniProt P21452); assay: Signal transduction (ST), intracellular Ca++ (FLIPR), NK2; conditions: read-out: pIC50 NK2 (converted)
T1 sequence (P21452 1-398): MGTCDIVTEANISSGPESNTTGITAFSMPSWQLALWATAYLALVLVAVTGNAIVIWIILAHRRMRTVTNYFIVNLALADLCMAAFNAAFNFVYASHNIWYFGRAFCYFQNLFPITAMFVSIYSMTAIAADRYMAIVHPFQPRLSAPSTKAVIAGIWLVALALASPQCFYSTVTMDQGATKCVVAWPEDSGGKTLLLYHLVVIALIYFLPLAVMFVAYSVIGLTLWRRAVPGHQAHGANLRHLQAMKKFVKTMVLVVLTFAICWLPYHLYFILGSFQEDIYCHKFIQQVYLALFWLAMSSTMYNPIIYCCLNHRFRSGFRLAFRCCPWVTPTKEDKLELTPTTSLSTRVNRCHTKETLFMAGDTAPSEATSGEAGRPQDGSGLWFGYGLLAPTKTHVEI

[2] = target: T2, NK3 (Homo sapiens, UniProt P29371); assay: Signal transduction (ST), intracellular Ca++ (FLIPR), NK3; conditions: read-out: pIC50 NK3 (converted)
T2 sequence (P29371 1-465): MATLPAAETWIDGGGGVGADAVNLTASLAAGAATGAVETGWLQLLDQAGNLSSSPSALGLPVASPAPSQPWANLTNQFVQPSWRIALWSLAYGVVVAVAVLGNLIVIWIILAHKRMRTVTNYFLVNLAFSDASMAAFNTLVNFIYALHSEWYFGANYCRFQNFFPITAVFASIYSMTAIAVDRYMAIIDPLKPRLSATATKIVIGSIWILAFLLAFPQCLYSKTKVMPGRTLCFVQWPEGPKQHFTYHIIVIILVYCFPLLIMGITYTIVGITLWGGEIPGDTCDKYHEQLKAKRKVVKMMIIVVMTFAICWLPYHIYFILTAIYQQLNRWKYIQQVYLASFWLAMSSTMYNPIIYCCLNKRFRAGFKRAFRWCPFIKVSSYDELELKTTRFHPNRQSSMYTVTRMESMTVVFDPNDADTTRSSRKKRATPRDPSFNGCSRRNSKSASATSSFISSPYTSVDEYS

[3] = target: NK1 (Homo sapiens, UniProt P25103); assay: Signal transduction (ST), intracellular Ca++ (FLIPR), NK1 antagonistic activity; conditions: read-out: pIC50 NK1 (converted)
NK1, sequence (P25103 whole entry): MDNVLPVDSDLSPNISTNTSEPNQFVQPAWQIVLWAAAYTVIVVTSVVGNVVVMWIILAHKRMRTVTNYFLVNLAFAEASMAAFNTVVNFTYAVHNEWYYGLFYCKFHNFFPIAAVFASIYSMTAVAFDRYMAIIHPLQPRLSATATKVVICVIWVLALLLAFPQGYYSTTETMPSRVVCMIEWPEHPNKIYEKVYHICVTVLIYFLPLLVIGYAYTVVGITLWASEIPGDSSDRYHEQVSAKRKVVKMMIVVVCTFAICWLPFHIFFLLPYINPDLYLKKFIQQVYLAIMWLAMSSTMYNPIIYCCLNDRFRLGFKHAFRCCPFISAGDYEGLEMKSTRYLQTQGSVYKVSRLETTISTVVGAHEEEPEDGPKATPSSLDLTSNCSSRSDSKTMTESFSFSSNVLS
Method in brief: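 Antagonist IC50 was fitted by non-linear regression of peak intracellular Ca++ signals measured on FLIPR after agonist challenge. Beforehand, Fluo3-loaded confluent cells received antagonists over a concentration range for 20 min at room temperature in Ca++ Krebs buffer, pH 7.4.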

Compound	IC50 [1] [nM]	IC50 [2] [nM]	IC50 [3] [nM]
COc1ccc(OC)c(S(=O)(=O)N2CCC(N3CCN([C@H]4CCN(C(=O)c5cc(C(F)(F)F)cc(C(F)(F)F)c5)[C@H](Cc5ccccc5)C4)CC3)C2)c1 (stereo partly drawn) [Compound 411]	2510	1000	20
COc1ccc(Cl)cc1S(=O)(=O)N1CCC(N2CCN([C@H]3CCN(C(=O)c4cc(C(F)(F)F)cc(C(F)(F)F)c4)[C@H](Cc4ccccc4)C3)CC2)C1 (stereo partly drawn) [Compound 412]	2510	5010	79.4
